Activity calls are given as the source filed them. No cut-off for these calls is given here.
Tested on: Staphylococcus aureus
Assay: Antibacterial activity against Staphylococcus aureus CCT 4295
Assay type: functional, organism-based

Question: With `COc1c(O)c2c(c3c1CCOC3=O)CC[C@H]1C(C)(C)CCC[C@]21C` as the compound, how does the Activity read?
Answer: Active

Source: ChEMBL document CHEMBL1141792, “Swartziarboreol diterpenes from Swartzia langsdorffii Raddi” (J Nat Prod, 2005)
